The text below walks through data of PubChem BioAssay AID226 (DTP/NCI, 2004).

For the experiment, the system named is B6C3F1 mice, intracerebral ependymoblastoma, median survival T/C. Description: NCI In Vivo Anticancer Drug Screen. Data for tumor model Ependymoblastoma (intracerebral) in B6C3F1 mice. As to conditions: endpoint: median survival time, higher = longer survival. The method, then:
The antitumor activity of compounds was measured in mice bearing transplantable tumors. Survival or tumor size were measured and the results are expressed as the measurement made in the treated group (T) divided by the measurement made in the vehicle treated control group (C). The tumor model used in this assay is Ependymoblastoma (intracerebral) in B6C3F1 mice

Each structure is given as a SMILES string. Where “and” joins values, the source holds several entries; their conditions need not be identical. Equal values may be shown once. Inconclusive results and toxic doses are left out.

Take `O=C(NC1=C(N2CC2)C(=O)C(NC(=O)OCCO)=C(N2CC2)C1=O)OCCO`: the T/C is 106 % of control (dose: 0.18 mg/kg/injection, schedule: Q01DX005 (ip), vehicle: saline); 98 % of control (dose: 0.39 mg/kg/injection, schedule: Q01DX005 (ip), vehicle: saline); 102 % of control (dose: 0.75 mg/kg/injection, schedule: Q01DX005 (ip), vehicle: saline); 103 % of control and 108 % of control (dose: 1.5 mg/kg/injection, schedule: Q01DX005 (ip), vehicle: saline); 96 % of control and 115 % of control (dose: 3.0 mg/kg/injection, schedule: Q01DX005 (ip), vehicle: saline); 110 % of control and 113 % of control (dose: 6.0 mg/kg/injection, schedule: Q01DX005 (ip), vehicle: saline).

Regarding `CN(C)c1nc(N(C)C)nc(N(C)C)n1`, the T/C runs as follows: (dose: 50.0 mg/kg/injection, schedule: Q01DX005 (ip), vehicle: saline) 94 % of control; (dose: 100.0 mg/kg/injection, schedule: Q01DX005 (ip), vehicle: saline with Tween-80) 100 % of control; (dose: 100.0 mg/kg/injection, schedule: Q01DX005 (ip), vehicle: saline) 94 % of control; (dose: 200.0 mg/kg/injection, schedule: Q01DX001 (ip), vehicle: saline with Tween-80) 92 % of control; (dose: 200.0 mg/kg/injection, schedule: Q01DX001 (ip), vehicle: saline) 96 % of control and 99 % of control and 104 % of control; (dose: 200.0 mg/kg/injection, schedule: Q01DX005 (ip), vehicle: saline with Tween-80) 99 % of control. Also, the T/C reads like this: (dose: 200.0 mg/kg/injection, schedule: Q01DX005 (ip), vehicle: saline) 101 % of control; (dose: 400.0 mg/kg/injection, schedule: Q01DX001 (ip), vehicle: saline with Tween-80) 100 % of control; (dose: 400.0 mg/kg/injection, schedule: Q01DX001 (ip), vehicle: saline) 97 % of control and 107 % of control and 89 % of control; (dose: 400.0 mg/kg/injection, schedule: Q01DX005 (ip), vehicle: saline with Tween-80) 87 % of control; (dose: 800.0 mg/kg/injection, schedule: Q01DX001 (ip), vehicle: saline with Tween-80) 100 % of control; (dose: 800.0 mg/kg/injection, schedule: Q01DX001 (ip), vehicle: saline) 92 % of control (2×) and 96 % of control. Further, the T/C (dose: 1600.0 mg/kg/injection, schedule: Q01DX001 (ip), vehicle: saline) is 106 % of control.

On to `NC(=S)Nc1cccc2ccccc12`, for which the T/C (dose: 1.56 mg/kg/injection, schedule: Q01DX005 (ip), vehicle: saline with Tween-80) is 92 % of control; the T/C (dose: 3.12 mg/kg/injection, schedule: Q01DX005 (ip), vehicle: saline with Tween-80) is 100 % of control and 88 % of control; the T/C (dose: 6.25 mg/kg/injection, schedule: Q01DX005 (ip), vehicle: saline with Tween-80) was 92 % of control and 93 % of control; the T/C (dose: 12.5 mg/kg/injection, schedule: Q01DX005 (ip), vehicle: saline with Tween-80) was 91 % of control; the T/C (dose: 25.0 mg/kg/injection, schedule: Q01DX005 (ip), vehicle: saline with Tween-80) was 88 % of control and 89 % of control; the T/C (dose: 50.0 mg/kg/injection, schedule: Q01DX005 (ip), vehicle: saline with Tween-80) was 91 % of control.

`O=NN(CCF)C(=O)NCCO`: the T/C by setting is: (dose: 5.18 mg/kg/injection, schedule: Q01DX005 (ip), vehicle: Klucel (hydroxypropylcellulose) (HPC)) 189 % of control; (dose: 8.64 mg/kg/injection, schedule: Q01DX005 (ip), vehicle: Klucel (hydroxypropylcellulose) (HPC)) 357 % of control; (dose: 13.0 mg/kg/injection, schedule: Q01DX001 (ip), vehicle: saline) 115 % of control; (dose: 14.4 mg/kg/injection, schedule: Q01DX005 (ip), vehicle: Klucel (hydroxypropylcellulose) (HPC)) 357 % of control; (dose: 21.6 mg/kg/injection, schedule: Q01DX001 (ip), vehicle: saline) 181 % of control; (dose: 24.0 mg/kg/injection, schedule: Q01DX005 (ip), vehicle: Klucel (hydroxypropylcellulose) (HPC)) 357 % of control. Moreover, the T/C was 363 % of control (dose: 36.0 mg/kg/injection, schedule: Q01DX001 (ip), vehicle: saline) and 363 % of control (dose: 60.0 mg/kg/injection, schedule: Q01DX001 (ip), vehicle: saline).

On to `CC1CN1C(=O)NCCCCCCNC(=O)N1CC1C` (stereo unspecified), for which the T/C was 105 % of control (dose: 1.25 mg/kg/injection, schedule: Q01DX005 (ip), vehicle: Klucel (hydroxypropylcellulose) (HPC)); 108 % of control (dose: 2.5 mg/kg/injection, schedule: Q01DX005 (ip), vehicle: Klucel (hydroxypropylcellulose) (HPC)); 120 % of control (dose: 5.0 mg/kg/injection, schedule: Q01DX005 (ip), vehicle: Klucel (hydroxypropylcellulose) (HPC)); 109 % of control (dose: 10.0 mg/kg/injection, schedule: Q01DX005 (ip), vehicle: Klucel (hydroxypropylcellulose) (HPC)).

Turning to `CN1CC[C@]23c4c5ccc(O)c4O[C@H]2C(=O)CC[C@H]3[C@H]1C5`, the T/C by setting is: (dose: 6.25 mg/kg/injection, schedule: Q01DX005 (iv), vehicle: saline) 113 % of control; (dose: 12.5 mg/kg/injection, schedule: Q01DX005 (iv), vehicle: saline) 114 % of control; (dose: 25.0 mg/kg/injection, schedule: Q01DX005 (iv), vehicle: saline) 122 % of control.

Regarding `ClC1=C(Cl)C2(Cl)C3C(Cl)C(Cl)CC3C1(Cl)C2(Cl)Cl` (stereo unspecified), the T/C by setting is: (dose: 6.0 mg/kg/injection, schedule: Q01DX005 (ip), vehicle: saline with Tween-80) 99 % of control and 100 % of control and 105 % of control; (dose: 6.25 mg/kg/injection, schedule: Q01DX005 (ip), vehicle: other) 101 % of control; (dose: 12.0 mg/kg/injection, schedule: Q01DX005 (ip), vehicle: saline with Tween-80) 95 % of control and 96 % of control and 105 % of control; (dose: 12.5 mg/kg/injection, schedule: Q01DX005 (ip), vehicle: other) 108 % of control; (dose: 24.0 mg/kg/injection, schedule: Q01DX005 (ip), vehicle: saline with Tween-80) 96 % of control and 105 % of control and 87 % of control; (dose: 25.0 mg/kg/injection, schedule: Q01DX005 (ip), vehicle: other) 98 % of control. Moreover, the T/C is 94 % of control and 101 % of control and 110 % of control (dose: 45.0 mg/kg/injection, schedule: Q01DX005 (ip), vehicle: saline with Tween-80); 109 % of control (dose: 50.0 mg/kg/injection, schedule: Q01DX005 (ip), vehicle: other); 101 % of control and 86 % of control and 89 % of control (dose: 90.0 mg/kg/injection, schedule: Q01DX005 (ip), vehicle: saline with Tween-80).

Turning to `COS(C)(=O)=O`, the T/C was 118 % of control (dose: 16.0 mg/kg/injection, schedule: Q01DX005 (ip), vehicle: saline); 102 % of control (dose: 32.0 mg/kg/injection, schedule: Q01DX005 (ip), vehicle: saline); 100 % of control (dose: 64.0 mg/kg/injection, schedule: Q01DX005 (ip), vehicle: saline).

As for `CCCN(C)C(=O)N(CCCl)N=O`, the T/C (dose: 19.4 mg/kg/injection, schedule: Q01DX001 (ip), vehicle: DMSO) was 116 % of control; the T/C (dose: 31.3 mg/kg/injection, schedule: Q01DX001 (ip), vehicle: saline + alcohol) is 320 % of control; the T/C (dose: 32.4 mg/kg/injection, schedule: Q01DX001 (ip), vehicle: DMSO) was 169 % of control; the T/C (dose: 54.0 mg/kg/injection, schedule: Q01DX001 (ip), vehicle: DMSO) was 239 % of control; the T/C (dose: 62.5 mg/kg/injection, schedule: Q01DX001 (ip), vehicle: saline + alcohol) is 324 % of control; the T/C (dose: 90.0 mg/kg/injection, schedule: Q01DX001 (ip), vehicle: DMSO) is 368 % of control. Moreover, the T/C by setting is: (dose: 125.0 mg/kg/injection, schedule: Q01DX001 (ip), vehicle: saline + alcohol) 110 % of control; (dose: 150.0 mg/kg/injection, schedule: Q01DX001 (ip), vehicle: DMSO) 366 % of control; (dose: 250.0 mg/kg/injection, schedule: Q01DX001 (ip), vehicle: DMSO) 365 % of control.

`Cc1c[nH]c(=O)[nH]c1=O`: the T/C was 104 % of control (dose: 64.0 mg/kg/injection, schedule: Q01DX005 (ip), vehicle: Klucel (hydroxypropylcellulose) (HPC)); 92 % of control (dose: 128.0 mg/kg/injection, schedule: Q01DX005 (ip), vehicle: Klucel (hydroxypropylcellulose) (HPC)); 99 % of control (dose: 256.0 mg/kg/injection, schedule: Q01DX005 (ip), vehicle: Klucel (hydroxypropylcellulose) (HPC)); 95 % of control (dose: 512.0 mg/kg/injection, schedule: Q01DX005 (ip), vehicle: Klucel (hydroxypropylcellulose) (HPC)); 95 % of control (dose: 1024.0 mg/kg/injection, schedule: Q01DX005 (ip), vehicle: Klucel (hydroxypropylcellulose) (HPC)).
